In series [1] the target is T1, Phosphotyrosine protein phosphatase (Mycobacterium tuberculosis, UniProt A0A045ISB3).
T1 sequence (A0A045ISB3 whole entry): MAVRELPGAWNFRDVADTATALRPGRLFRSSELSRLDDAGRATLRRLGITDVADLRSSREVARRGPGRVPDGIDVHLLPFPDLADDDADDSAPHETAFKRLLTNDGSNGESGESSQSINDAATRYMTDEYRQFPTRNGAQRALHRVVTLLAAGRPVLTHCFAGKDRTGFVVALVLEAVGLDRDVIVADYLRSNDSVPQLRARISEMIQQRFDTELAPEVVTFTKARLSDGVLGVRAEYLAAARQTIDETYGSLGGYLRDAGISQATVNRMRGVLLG
Description: Binding affinity to Mycobacterium tuberculosis PtpB by UV-VIS spectrophotometric analysis.

In series [2] the target is T2, Phosphotyrosine protein phosphatase (Mycobacterium tuberculosis) (UniProt A0A045ISB3).
T2 sequence (whole entry): T1 sequence (A0A045ISB3 whole entry)
Description: Time independent inhibition of Mycobacterium tuberculosis PtpB at 0.2 uM pre-incubated for 0 to 10 mins before p-nitrophenyl phosphate substrate addition.

Series [3] concerns the target T2, Phosphotyrosine protein phosphatase (Mycobacterium tuberculosis). Nature of the series: Binding affinity to Mycobacterium tuberculosis PtpB assessed as Stern-Volmer quenching constant by UV-VIS spectrophotometric analysis.
Series [4] shares this target. Description: Binding affinity to Mycobacterium tuberculosis PtpB assessed as protection against proteolytic cleavage at 100 to 400 uM preincubated for 10 mins before trypsin addition by mass spectrometry.
Series [5] concerns the target T1, Phosphotyrosine protein phosphatase. Description: Inhibition of Mycobacterium tuberculosis PtpB using p-nitrophenyl phosphate as substrate preincubated for 10 mins followed by substrate addition measured every minute for 10 mins by UV-VIS spectrophotometric analysis.
The target of series [6] is T2, Phosphotyrosine protein phosphatase (Mycobacterium tuberculosis). Nature of the series: Binding affinity to Mycobacterium tuberculosis PtpB assessed as sequence coverage level at 100 uM preincubated for 10 mins before trypsin addition by mass spectrometry based peptide mass fingerprint assay (reference value: 92%).
A short description of series [7]: Cytotoxicity against human THP1 cells after 72 hrs by MTT assay. The format is cell-based. To be noted: THP-1 cells. (In general: Formazan colour is commonly taken as a measure of viable cells.)
Series [8] addresses T2, Phosphotyrosine protein phosphatase (Mycobacterium tuberculosis). Nature of the series: Binding affinity to Mycobacterium tuberculosis PtpB assessed as binding constant by fluorescence based assay.
The target in series [9] is T1, Phosphotyrosine protein phosphatase. Nature of the series: Binding affinity to Mycobacterium tuberculosis PtpB by fluorescence based assay.
Series [10] concerns Mycobacterium tuberculosis. Nature of the series: Antitubercular activity against Mycobacterium tuberculosis H37Ra ATCC 25177 after 7 days by resazurin microtiter assay. Particulars: H37Ra ATCC 25177, 168 h. The format is functional. (In general: The colour change of resazurin is a common sign of viable cells or microbes.)
Series [11] deals with T2, Phosphotyrosine protein phosphatase (Mycobacterium tuberculosis). Nature of the series: Reversible inhibition of Mycobacterium tuberculosis PtpB using p-nitrophenyl phosphate as substrate assessed as enzyme recovery at 10 times IC50 preincubated for 10 mins followed by 100-fold dilution. Details: scale not given: the % may be the effect or the level left.
For series [12], the target named is T3, Low molecular weight protein-tyrosine phosphatase A (Mycobacterium tuberculosis, UniProt P9WIA1).
T3 sequence (P9WIA1 whole entry): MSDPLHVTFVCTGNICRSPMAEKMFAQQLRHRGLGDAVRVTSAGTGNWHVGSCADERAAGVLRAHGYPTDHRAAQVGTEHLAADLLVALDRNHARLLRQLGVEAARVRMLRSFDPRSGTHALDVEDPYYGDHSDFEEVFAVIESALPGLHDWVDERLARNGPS
Nature of the series: Inhibition of Mycobacterium tuberculosis PtpA using p-nitrophenyl phosphate as substrate preincubated for 10 mins followed by substrate addition measured every minute for 10 mins by UV-VIS spectrophotometric analysis.

For series [13], the target named is T4, Tyrosine-protein phosphatase non-receptor type 22 (Homo sapiens, UniProt Q9Y2R2).
T4 sequence (Q9Y2R2 whole entry): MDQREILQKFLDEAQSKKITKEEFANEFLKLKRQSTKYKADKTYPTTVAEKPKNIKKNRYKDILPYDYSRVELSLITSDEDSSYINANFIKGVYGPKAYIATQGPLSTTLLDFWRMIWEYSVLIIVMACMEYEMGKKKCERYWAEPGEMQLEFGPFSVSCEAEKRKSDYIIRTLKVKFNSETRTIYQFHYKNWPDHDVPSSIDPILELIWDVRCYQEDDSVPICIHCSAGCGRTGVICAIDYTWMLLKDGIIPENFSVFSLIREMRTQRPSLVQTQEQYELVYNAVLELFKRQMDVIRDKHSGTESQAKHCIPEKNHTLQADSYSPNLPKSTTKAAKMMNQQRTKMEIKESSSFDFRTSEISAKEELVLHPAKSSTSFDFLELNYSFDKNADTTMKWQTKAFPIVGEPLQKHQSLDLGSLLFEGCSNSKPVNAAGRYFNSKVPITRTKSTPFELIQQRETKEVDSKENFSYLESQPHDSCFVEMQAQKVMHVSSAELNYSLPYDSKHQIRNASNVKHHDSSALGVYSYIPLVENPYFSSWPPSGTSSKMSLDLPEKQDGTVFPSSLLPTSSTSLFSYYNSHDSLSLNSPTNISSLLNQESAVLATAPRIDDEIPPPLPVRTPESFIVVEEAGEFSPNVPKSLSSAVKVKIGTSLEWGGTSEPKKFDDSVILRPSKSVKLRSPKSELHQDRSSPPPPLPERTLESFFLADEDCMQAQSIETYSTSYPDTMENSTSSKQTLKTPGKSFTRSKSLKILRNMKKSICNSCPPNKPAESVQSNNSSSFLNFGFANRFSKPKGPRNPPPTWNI
Description: Inhibition of LYP (unknown origin) using p-nitrophenyl phosphate as substrate preincubated for 10 mins followed by substrate addition measured every minute for 10 mins by UV-VIS spectrophotometric analysis.

The target in series [14] is T5, Tyrosine-protein phosphatase non-receptor type 12 (Homo sapiens, UniProt Q05209).
T5 sequence (Q05209 whole entry): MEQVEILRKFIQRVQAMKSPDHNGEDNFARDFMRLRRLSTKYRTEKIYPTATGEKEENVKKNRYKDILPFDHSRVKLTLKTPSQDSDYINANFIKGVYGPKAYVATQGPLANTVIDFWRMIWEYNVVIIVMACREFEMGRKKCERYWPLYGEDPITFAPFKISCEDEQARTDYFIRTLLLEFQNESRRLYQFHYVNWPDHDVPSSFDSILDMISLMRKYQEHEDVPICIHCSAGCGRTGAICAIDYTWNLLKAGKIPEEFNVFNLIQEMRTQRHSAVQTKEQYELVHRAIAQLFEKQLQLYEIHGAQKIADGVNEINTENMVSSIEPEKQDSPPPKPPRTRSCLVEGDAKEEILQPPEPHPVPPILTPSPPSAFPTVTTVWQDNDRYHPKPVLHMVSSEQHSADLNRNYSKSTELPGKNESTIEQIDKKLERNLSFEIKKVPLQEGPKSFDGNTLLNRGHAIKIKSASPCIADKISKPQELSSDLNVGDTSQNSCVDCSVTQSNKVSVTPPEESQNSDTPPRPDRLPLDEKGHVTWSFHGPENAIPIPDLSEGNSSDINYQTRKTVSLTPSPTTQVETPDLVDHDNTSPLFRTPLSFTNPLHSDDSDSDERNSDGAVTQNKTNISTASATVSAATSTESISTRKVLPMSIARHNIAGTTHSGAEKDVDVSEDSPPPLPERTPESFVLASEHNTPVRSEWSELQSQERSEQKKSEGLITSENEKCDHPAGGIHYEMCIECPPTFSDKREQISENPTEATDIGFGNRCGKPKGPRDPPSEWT
Nature of the series: Inhibition of PTP-PEST (unknown origin) using p-nitrophenyl phosphate as substrate preincubated for 10 mins followed by substrate addition measured every minute for 10 mins by UV-VIS spectrophotometric analysis.

SMILES strings stand for the structures. ≈ marks a conversion by molar mass, not a printed value. Calls of active or inactive are those of the source. No cut-off for these calls is given here.

Regarding `CC(C)=CCc1c(O)ccc(C(=O)[C@@H]2[C@@H](c3ccc(O)cc3O)CC(C)=C[C@H]2c2c(O)cc(O)c3c(=O)c(CC=C(C)C)c(-c4ccc(O)cc4O)oc23)c1O`, the Kd (usually a measure of binding affinity in units of concentration) came to 1000 nM in [1] and 850 nM in series [9]. Moreover, the inhibition entry in series [2] is “Active”. Further, the Ka stood at 1 ×10⁶ /M in [3] and 1.2 ×10⁶ /M in series [8]. The outcome in series [4] was Active. In addition, the IC50 (in general, the midpoint of a concentration-inhibition curve) in series [5] came to 360 nM; in series [12], 1490 nM; in [13] it was 11800 nM; in [14] it was 5220 nM. Moreover, the Activity in series [6] turned out to be 93%; in series [11], 40%. Moreover, the CC50 – broadly, the concentration at which the toxic effect on the cells reaches its halfway point – at 72 h in series [7] was 20.2 µg/mL (≈ 26.6 µM). The MIC (as a rule, the lowest concentration found to suppress growth) in [10] came out at 32 µg/mL (≈ 42.1 µM).
For the compound `CC(C)=CCc1c(-c2ccc(O)cc2O)oc2c([C@@H]3C=C(C)C[C@H](c4ccc(O)cc4O)[C@H]3C(=O)c3ccc(O)cc3O)c(O)cc(O)c2c1=O`, the dissociation constant (Kd) in [1] turned out to be 1000 nM; in series [9] it was 700 nM. In [2], the inhibition entry is “Active”. For the same compound, the Ka in [3] was 1 ×10⁶ /M; in series [8] it was 1.4 ×10⁶ /M. Moreover, in series [4], the outcome was Active. For the same compound, the half-inhibitory concentration (IC50) in [5] stood at 830 nM; in series [12], 5890 nM; in series [13], 18500 nM; in [14], 12400 nM. The Activity in [6] was determined as 90%; in [11], 40%. It took 33.8 µg/mL (≈ 48.8 µM) to reach half-maximal cytotoxicity in series [7] (CC50 at 72 h). The compound further had a minimum inhibitory concentration (MIC) in [10] of 32 µg/mL (≈ 46.2 µM).

Source of the values: ChEMBL document CHEMBL4251612, “Naturally occurring Diels-Alder-type adducts from Morus nigra as potent inhibitors of Mycobacterium tuberculosis protein tyrosine phosphatase B” (Eur J Med Chem, 2018).
